The source made the active and inactive calls.
Tests used:
Assay type in all cases: functional, cell-based
HT-29 = assay: Cytotoxicity against human HT-29 cells
SK-MEL-28 = assay: Cytotoxicity against human SK MEL28 cells
P388 = assay: Cytotoxicity against mouse P388 cells
A549 = assay: Cytotoxicity against human A549 cells

Measured: Activity

C=C1CC[C@H](OC(C)=O)[C@@]2(C)[C@H]1[C@@H](OC(C)=O)[C@@]13O[C@](O)(C[C@H]2OC(C)=O)C(=C)C[C@@H]1OC(=O)[C@@H]3C
inactive: all assays above

CC(=O)O[C@H]1CC[C@]2(CO2)[C@@H]2[C@H](OC(C)=O)[C@@]3(O)[C@H](/C=C(/C)[C@H](OC(C)=O)C[C@H](OC(C)=O)[C@@]12C)OC(=O)[C@@H]3C
inactive: all assays above

CC(=O)O[C@H]1CC[C@]2(CO2)[C@@H]2[C@H](OC(C)=O)[C@@]3(O)[C@H](/C=C(/C)[C@H](O)C[C@H](OC(C)=O)[C@@]12C)OC(=O)[C@@H]3C
inactive: all assays above

C=C1[C@H]2C[C@@H](OC(C)=O)[C@@]3(C)[C@@H](OC(C)=O)CC[C@]4(CO4)[C@@H]3[C@@H](OC(C)=O)[C@]3(O2)[C@@H](C)C(=O)O[C@H]3[C@H]1Cl
inactive: all assays above

CC(=O)O[C@H]1CC/C(C)=C\[C@@H]2OC(=O)[C@H](C)[C@@]2(O)[C@@H](OC(C)=O)[C@H]2[C@]3(CC[C@H](OC(C)=O)[C@]12C)CO3
inactive: all assays above

C=C1[C@H](Cl)[C@@H]2OC(=O)[C@H](C)[C@]23O[C@@H]1[C@H](OC(C)=O)[C@H](OC(C)=O)[C@@]1(C)[C@@H](OC(C)=O)CC[C@]2(CO2)[C@@H]1[C@@H]3OC(C)=O
inactive: all assays above

C=C1CC[C@H](OC(C)=O)[C@]2(C)[C@@H](OC(C)=O)C[C@@H](OC(C)=O)/C(C)=C\[C@@H]3OC(=O)[C@H](C)[C@]3(O)[C@@H](OC(C)=O)[C@@H]12
inactive: all assays above

C=C1CC[C@H](OC(C)=O)[C@]2(C)[C@@H](OC(C)=O)C[C@@H](O)/C(C)=C\[C@@H]3OC(=O)[C@H](C)[C@]3(O)[C@@H](OC(C)=O)[C@@H]12
inactive: all assays above

Source: ChEMBL document CHEMBL1158013, “Absolute structures of new briarane diterpenoids from junceella fragilis” (J Nat Prod, 1999)
